Patent US8632832B2, “Direct dissolution” (Phares Pharmaceutical Research N.V., priority 2005, dated 2014)

Key:
[1] = Degree of dissolution of the carotenoid in the oily phase: filtration through a 0.45 μm pore size filter, then HPLC of the filtrate; type: physicochemical
Experimental: “Dissolving” or “dissolution” means obtaining molecular dispersions or molecular aggregates of a carotenoid which may be monomers, dimers, trimers etc and/or colloidal dispersions of the carotenoid. Assessment of the degree of dissolution of the carotenoid in an oily phase is performed by filtration of the oily phase through a 0.45 μm pore size filter, followed by HPLC determination of the carotenoid content in the filtrate and compared with the total carotenoid concentration in the unfiltered oily phase. “Substantially” means at least 40 wt %.
(§1) The oily astaxanthin solution may be further processed by mixing with fish feed pellets.

[2] = HPLC analysis of trans/cis isomer content and degradation products after in-line heating and cooling; type: physicochemical; settings: 1 s
Excerpt: as §1

[3] = Example 2: 1500 or 250 ppm astaxanthin composition, heated 150° C., then cooled

degree of dissolution of astaxanthin after filtration through 0.45 μm filter (HPLC) ([1]; Example 2: 1500 or 250 ppm astaxanthin composition in soya bean oil/fish oil, heated 150° C., transit time 1 s, then cooled): completely solubilised | degree of dissolution of astaxanthin after filtration through 0.45 μm filter (HPLC) ([1]; Example 3: 250 ppm astaxanthin composition in soy bean oil/fish oil, heated 126° C., 1 s, then cooled with fish oil of 23° C.): completely solubilised | all trans-astaxanthin content [2, 3]: 75% | cis isomers content [2, 3]: 25% | further degradation products [2, 3]: no further degradation products | cis-isomers content ([2]; Example 3: 250 ppm astaxanthin composition, heated 126° C., then cooled with fish oil of 23° C.): 12%
Structure (SMILES): CC1=C(/C=C/C(C)=C/C=C/C(C)=C/C=C/C=C(C)/C=C/C=C(C)/C=C/C2=C(C)C(=O)[C@@H](O)CC2(C)C)C(C)(C)C[C@H](O)C1=O [astaxanthin]
